Values quoted from earlier work, collected in article PMC12207366, “Protonated Glutamate and Aspartate Side Chains Can Recognize Phosphodiester Groups via Strong and Short Hydrogen Bonds in Biomacromolecular Complexes” (Angewandte Chemie (International Ed. in English), 2025).

Conditions: unstructured peptides; cited from earlier work

SMILES: N[C@@H](CC(=O)O)C(=O)O [aspartate]
- pKa of side chain carboxylate group: ~3.9
